The source of these data is US20200255492A1, “LEPTIN PEPTIDES AND THEIR USE FOR TREATING NEUROLOGICAL DISORDERS” (UNIVERSITY OF DUNDEE, priority 2017, published 2020).

Holding throughout (assay type): cell-based, Sprague Dawley rats
Assay [1] concerns GluA1 surface expression in cultured hippocampal neurons. The assay can be described thus: Surface labelling of AMPA receptor subunit GluA1 (immunocytochemistry). The conditions noted are these: for GluA1 surface expression, low concentration alone: 10 nM; for surface GluA1 expression: 50 nM, 15 min; for GluA1 surface expression in the presence of Aβ1-42: leptin peptide 10 nM plus Aβ1-42; for GluA1 staining in the presence of bpV: bpV plus leptin or leptin (116-130). The procedure:
Hippocampal cultures were prepared from neonatal Sprague Dawley rats as before (O'Malley et al. 2007). Briefly, neonatal Sprague Dawley rats (1-3 days old) were killed by cervical dislocation in accordance with Schedule 1 of the United Kingdom Government Animals (Scientific Procedures) Act, 1986 and the hippocampi removed. After washing in HEPES buffered saline (HBS) comprising (mM): NaCl 135; KCl 5; CaCl2 1; MgCl2 1; HEPES 10; D-glucose 25 at pH 7.4; cells were treated with protease Type X and Type XIV (0.5 mg/ml; Sigma) for 25 min at room temperature. Dissociated cells were plated onto sterile dishes (Falcon 3001) treated with poly-1-lysine (20 μg/ml; 1-2 h) and maintained in MEM with serum replacement-2 (Sigma) in a humidified atmosphere of 5% CO2 and […] at 37° C. for up to 3 weeks.
To monitor GluA1 surface expression, immunocytochemistry was performed on hippocampal cultures (7-14 DIV) as before (Moult et al. 2010). Neurons were treated with agents for 20 min at room temperature (20-22° C.) before incubation with an antibody against an N-terminal region of GluA1 (sheep anti-GluR1; in house antibody against synthetic peptide (RTSDSRDHTRVDWKR) corresponding to 253-267 residues of GluR1; 1:100; Moult et al. 2010) at 4° C. Neurons were then fixed with 4% paraformaldehyde (5 min) before adding an appropriate fluorescently labelled secondary.
Trafficking of AMPA receptors to and away from synapses is crucial for various forms of activity-dependent synaptic plasticity (Collingridge et al. 2004). Our studies indicate that leptin regulates AMPA receptor trafficking as leptin promotes trafficking of GluA1 to hippocampal synapses (Moult et al. 2010). Moreover the ability of leptin to induce LTP in adult hippocampus requires the delivery of GluA1 to synapses by leptin (Moult et al. 2010). Thus, to assess if the leptin fragments also influence AMPA receptor trafficking processes, the surface expression of GluA1 was assayed in cultured hippocampal neurons (Moult et al. 2010). In agreement with previous studies, application of leptin (50 nM; 15 min) increased surface GluA1 expression to 184±7%; (n=36; P<0.001; FIG. 2C,D) compared with control hippocampal neurons. Similarly GluA1 surface expression was elevated (to 160±6% of control; n=36; P<0.001) after exposure to 50 nM leptin (116-130; FIG. 2C,D), whereas GluA1 surface expression (98±4% of control; n=36; P>0.05) was not altered after treatment with 50 nM leptin (22-56).

The subject of assay [2] is juvenile hippocampal slices. Nature of the assay: Subthreshold LFS: Aβ1-42-induced LTD. The following applies: for basal synaptic transmission: 10 nM; for synaptic transmission after LFS (magnitude of Aβ1-42-induced LTD): 10 nM plus Aβ1-42. The procedure:
Parasagittal hippocampal slices (300 μm) were prepared from either P13-21 or 12-24-week-old male Sprague Dawley rats as previously (Moult et al. 2010). Brains were rapidly removed and placed in ice-cold artificial CSF (aCSF; bubbled with 95% O2 and 5% CO2) containing the following (in mm): 124 NaCl, 3 KCl, 26 NaHCO3, 1.25 NaH2PO4, 2 CaCl2, 1 MgSO4, and 10 d-glucose. Once prepared, parasagittal slices were allowed to recover at room temperature in oxygenated aCSF for 1 h before use. Slices were transferred to a submerged chamber maintained at room temperature and perfused with artificial cerebrospinal fluid at 2 ml min^−1. Standard extracellular recordings were used to monitor evoked field excitatory postsynaptic potentials (fEPSP) from stratum radiatum. The Schaffer collateral-commissural pathway was stimulated (constant voltage; 0.1 ms) at 0.033 Hz, using a stimulus intensity that evoked a peak amplitude ˜50% of the maximum. Synaptic potentials were low pass filtered at 2 kHz and digitally sampled at 10 kHz. The fEPSP slope was measured and expressed relative to baseline. Synaptic records are the average of 4 consecutive responses and stimulus artefacts are blanked for clarity. Recordings were made using an Axopatch 200B amplifier and analyzed using LTP v2.4 software. In synaptic plasticity studies, the degree of potentiation was calculated 30-35 min after HFS and expressed as a percentage of baseline±standard error of mean (SEM).
It is known that oligomeric Aβ promotes the induction of LTD (Shankar et al. 2008) and that exposure to a low concentration of leptin (10 nM) prevents facilitation of hippocampal LTD by Aβ1-42 (Doherty et al. 2013). Thus we assessed if either of the leptin fragments mirror leptin action. Initially we verified that leptin prevented Aβ1-42-induced LTD. […] Furthermore, leptin (10 nM) reduced the magnitude of Aβ1-42-induced LTD such that LFS depressed synaptic transmission to 101±5.3% of baseline in leptin-treated slices (n=4; P>0.05; FIG. 4B). To establish if the leptin fragments mirrored leptin action the effects of leptin (116-130) or leptin (22-56) were also examined.

For assay [3], the system named is GluA1 surface expression in cultured hippocampal neurons. Nature of the assay: Surface labelling of AMPA receptor subunit GluA1 (immunocytochemistry). The following applies: for GluA1 surface expression, hexamer study: 10 nM, 15 min; for GluA1 surface expression, agent alone (PTEN study): bpV 50 nM, 30 min.

As to “leptin (22-56): leptin fragment amino acids 22-56 (Bachem), comparison fragment (VPIQKVQDDTKTLIKTIVTRINDISHTQSVSSKQK; UniProt P41159 22-56, looked up, fragment) [reference compound]”, in assay [1], the “GluA1 surface expression, low concentration alone” value is “no significant effect on GluA1 trafficking per se”; the “surface GluA1 expression” value is 98±4 % of control; the “GluA1 surface expression in the presence of Aβ1-42” value is reported as 51±2 % of control. In assay [2], the basal synaptic transmission entry is recorded as “no significant effect on basal synaptic transmission” and the “synaptic transmission after LFS (magnitude of Aβ1-42-induced LTD)” value (shortened to “synaptic transmission after LFS”) is listed as 73±4.0 % of baseline.
Consider “Aβ1-42: amyloid beta 1-42, toxin used in the AD models [reference compound]”, for which, in assay [1] (500 nM, 20 min, control Aβ42-1-treated neurons), the “GluA1 surface expression, Aβ1-42 alone” value is on record as 70±2 % of control. The “synaptic transmission after subthreshold LFS (LTD), Aβ1-42 alone” value in assay [2] (vehicle-treated slices 94±5.6%) is listed as 73±3.8 % of baseline.
With “CSLPQT (listed as Mus musculus) [leptin (117-122)]”, in assay [3], the “GluA1 surface expression, hexamer study” value is on record as 167±10 % of control.
With “leptin: the metabolic hormone leptin, whole (full length) leptin molecule; human leptin from Sigma in SH-SY5Y work”, in assay [1], the “GluA1 surface expression, low concentration alone” value was 113±7 % of control; the “surface GluA1 expression” value is reported as 184±7 % of control; the “GluA1 staining in the presence of bpV” value is given as 131±6.6 % of control; the “GluA1 surface expression in the presence of Aβ1-42” value is 101±4 % of control. Moreover, the “GluA1 surface expression, agent alone (PTEN study)” value in assay [3] is on record as 140±7.2 % of control. In addition, in assay [2], the “synaptic transmission after LFS” value is recorded as 101±5.3 % of baseline.
Turning to “SCSLPQTSGLQKPES (listed as Mus musculus) [leptin (116-130)]”, in assay [1], the “surface GluA1 expression” value is reported as 160±6 % of control, the “GluA1 staining in the presence of bpV” value was 148±8.1 % of control and the “GluA1 surface expression in the presence of Aβ1-42” value is on record as 97±4 % of control. Also, in assay [3], the “GluA1 surface expression, hexamer study” value is recorded as “increased GluA1 surface labelling” and the “GluA1 surface expression, agent alone (PTEN study)” value is reported as 167±10 % of control. Further, in assay [2], the basal synaptic transmission result is reported as “no significant effect on basal synaptic transmission” and the “synaptic transmission after LFS” value was 94±5.2 % of baseline.
As to “SCSLPQ (listed as Mus musculus) [leptin (116-121)]”, in assay [3], the “GluA1 surface expression, hexamer study” value is on record as 146±9 % of control.
